Assays:
[1] = Survival of mice on acute cooling; assay type: in vivo; conditions: i.p. 1 hour before, 80 mg/kg (invention), 64 mg/kg (ester), 17 mg/kg (sodium succinate)
Description: The activity of the compound according to the present invention was studied in experiments on animals. The effectivemess of the compound according to the present invention was studied for resistance against an acute cold effect in comparison with conventional preparations such as butanedioic acid mono[(2-dimethylamino)ethyl ester] and sodium succinate.
The experiments were carried out on male mice (tetrahybdrids) with a body mass of 18-20 g which were placed into a cold chamber at a temperature of -15t to -17° C. in separate plastic cages slightly limiting their activity. […] The preparations were administered intraperiotoneally 1 hour before the cold effect the control animals were administered with a physiological solution.

[2] = Stresso-protective activity, motion stress in slowly rotating drum for 48 hours; assay type: in vivo, rats; conditions: 48 h motion stress, 10 mg/kg i.p. four times (invention, ester)
Description: In evaluation of the stresso-protective activity of the compound according to the present invention as a model use was made of a procedure of depriving rats of sleep, meals and water in a slowly rotating drum (at the speed of 0.2 km/h).
The experiments were carried out on 42 nondescript male rats. In parallel experiments the antistress activity of butanedioic acid mono[(2-dimethylamino)ethyl ester] was studied; as the reference prepartion use was made of the prior art tranquilizer--diazepam which was used in the experiments for this very indication.
4 groups of animals were tested in parallel. Groups I and II were placed for 48 hours into a slowly rotating drum, groups III and IV were under normal conditions and were deprived only of meals and water. The compound according to the present invention and butanedioic acid mono[(2-dimethylamino)ethyl ester] were administered intraperitoneally in the dose of 10 mg/kg four times (2 times a day) in the volume of 2.5 ml/kg under the conditions of motion stress (Group I of the animals) and under normal conditions (Group III of animals). The control animals--Group II (active control) and Group IV (passive control) were given a physiological solution. The efficiency of the compound according to the present invention, of butanedioic acid mono[(2-dimethylamino)ethyl ester] and of diazepam was estimated on the basis of a set of characteristics showing the functional activity of the central nervous system, physical fitness and development of basic symptoms of the stress-syndrome.
The residence of control rats in a slowly-rotating drum over 48 hours results in a noticeable deterioration of all the studied characteristics, especially those of higher nervous activity (learning) and development of stress-syndrome. The state of control animals was characterized by lowering of the overall behavioural activity as determined by the "open-field" test (37±15%) with reference to the passive control level, by a reduction in the speed of development of a conventional avoiding response in an aqueous labyrinth (58±15%), by an increase in the number of mistakes during the teaching time (175±25%), lowering of the ultimate physical endurance as determined by the swimming-with-load test (the load is equal to 10% by mass of the body (70±17%), adrenal hypertrophy (146±16%), thymus atrophy (49±9%) and formation of ulcers on the stomach mucous membrane (5.25±1.0%).

SMILES	Survival, %, 1 hour ([1]; 1 hour of cold at -15 to -17° C.) [%]	Survival, %, 2 hours ([1]; 2 hours of cold at -15 to -17° C.) [%]	Survival, %, 3 hours ([1]; 3 hours of cold at -15 to -17° C.) [%]	Survival, %, 4 hours ([1]; 4 hours of cold at -15 to -17° C.) [%]	Survival, %, 5 hours ([1]; 5 hours of cold at -15 to -17° C.) [%]	Survival, %, 6 hours ([1]; 6 hours of cold at -15 to -17° C.) [%]	Weight coefficient of thymus ([2]; control 0.95 ± 0.18)	Weight coefficient of adrenal glands ([2]; control 1.246 ± 0.028)	Number of attempts till reaching the learning criterion (water labyrinth) ([2]; control 4.75 ± 0.5)	Number of ulcers on the stomach mucous membrane ([2]; control 5.25 ± 1.0)	Duration of swimming ([2]; control 244 ± 26) [s]
O=C(O)CCC(=O)O [Sodium succinate, sodium succinate]	100	80	70	40	10	0	–	–	–	–	–
CN1C(=O)CN=C(c2ccccc2)c2cc(Cl)ccc21 [Diazepam, diazepam]	–	–	–	–	–	–	2.26 g/kg of the initial body mass	1.010 g/kg of the initial body mass	7.25	1.0	210
